Molecular target: T1, Phosphatidylinositol 4,5-bisphosphate 3-kinase catalytic subunit delta isoform (Homo sapiens, UniProt O00329)
T1 sequence (O00329 whole entry): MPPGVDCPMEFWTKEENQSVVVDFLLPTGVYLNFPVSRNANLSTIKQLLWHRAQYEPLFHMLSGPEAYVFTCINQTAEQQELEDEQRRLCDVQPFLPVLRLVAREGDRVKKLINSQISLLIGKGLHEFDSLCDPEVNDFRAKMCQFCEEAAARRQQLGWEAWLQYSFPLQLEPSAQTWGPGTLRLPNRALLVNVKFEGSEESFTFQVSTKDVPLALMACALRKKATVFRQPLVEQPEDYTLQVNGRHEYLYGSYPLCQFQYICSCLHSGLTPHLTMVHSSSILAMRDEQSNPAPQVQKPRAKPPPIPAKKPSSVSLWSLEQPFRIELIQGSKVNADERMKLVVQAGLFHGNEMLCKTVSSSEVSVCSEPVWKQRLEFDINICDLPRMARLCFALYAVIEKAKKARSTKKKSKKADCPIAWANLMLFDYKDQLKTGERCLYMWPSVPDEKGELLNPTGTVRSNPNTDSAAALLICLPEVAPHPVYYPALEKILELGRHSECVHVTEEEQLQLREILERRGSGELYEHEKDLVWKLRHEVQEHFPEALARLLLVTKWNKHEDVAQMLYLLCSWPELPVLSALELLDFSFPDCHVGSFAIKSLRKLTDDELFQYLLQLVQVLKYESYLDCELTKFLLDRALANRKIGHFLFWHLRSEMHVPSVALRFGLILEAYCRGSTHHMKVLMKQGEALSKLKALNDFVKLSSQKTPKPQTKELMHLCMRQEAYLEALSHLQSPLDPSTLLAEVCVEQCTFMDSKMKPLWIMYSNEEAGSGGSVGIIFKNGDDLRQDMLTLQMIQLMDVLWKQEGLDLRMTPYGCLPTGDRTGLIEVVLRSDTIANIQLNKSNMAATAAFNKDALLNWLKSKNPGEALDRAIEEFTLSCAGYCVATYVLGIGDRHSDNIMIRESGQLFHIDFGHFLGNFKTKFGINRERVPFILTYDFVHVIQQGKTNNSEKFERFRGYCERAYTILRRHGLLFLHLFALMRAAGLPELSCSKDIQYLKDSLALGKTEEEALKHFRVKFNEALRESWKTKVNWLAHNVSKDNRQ
Test: Scintillation Proximity Assay
Description: The kinase reaction was conducted in polystyrene 384-well matrix white plate from Thermo Fisher Scientific in a final volume of 25 uL. Inhibitors were first diluted serially in DMSO and added to the plate wells before the addition of other reaction components. The final concentration of DMSO in the assay was 0.5%. The PI3K assays were carried out at room temperature in 20 mM MOPS, pH 6.7, 10 mM MgCl2, 5 mM DTT and CHAPS 0.03%. Reactions were initiated by the addition of ATP, the final reaction mixture consisted of 20 uM PIP2, 20 uM ATP, 0.2 uCi [γ-33P] ATP, 4 nM PI3K . […] 25 mM EDTA, 400 uM ATP. The final concentration of SPA beads was 1.0 mg/mL. After the plate sealing, plates were shaken overnight at room temperature and centrifuged at 1800 rpm for 10 minutes, the radioactivity of the product was determined by scintillation counting on Topcount (PerkinElmer).

Structure (SMILES) | IC50 [nM]
COc1c(C(C)n2nc(C)c3c(N)ncnc32)cc(Cl)c(C)c1-c1cncnc1 (configuration not stated) [US9932341, Example 168] | < 10
COc1c(C(C)n2nc(C)c3c(N)ncnc32)cc(Cl)c(C)c1-c1ccc(C(=O)N(C)CCO)nc1 (configuration not stated) [US9932341, Example 24] | < 10
